Data published in US20040039157A1, “Anti-angiogenic peptides” (priority 2000, published 2004).

What was measured:
CT26 tumours = assay: In vivo efficacy on growth of subcutaneous CT26 tumours; design: species or system Balb/c mice; conditions: daily ip α1-24, p<0.001
Protocol: Experiments were performed on six-week-old Balb/C mice weighing 15 g, obtained from Sheffield Field Laboratories. All experiments were approved by the Home Office Project Licence Number PPL50/1414.
The CT26 cell line was maintained by in vitro passage in Dulbecco's Minimal Eagles Medium containing 10% foetal calf serum, and 1% penicillin and streptomycin and maintained at 37° C. in humidified atmosphere of 5% CO2 in air. The cell line was routinely checked to ensure freedom from mycoplasma (Mycoplasma rapid detection system, Gena-Probe Incorporated, U.S.A.).
Animals were anaesthetised with an intraperitoneal injection of diazepam (0.5 mg/ml, Dumex Ltd.) and hypnorm (fentanyl citrate 0.0315 mg/ml and fluanisone 1 mg/ml, Janssen Pharmaceutical Ltd.) in the ratio of 1:1 at a volume of 0.1 ml/200 g body weight, with supplementation as required to maintain adequate anaesthesia. […] Tumour growth and animal weights were monitored daily.
Tumour growth was measured daily and when the majority of animals in the cohort had tumour volumes of >100 mm^3 but <350 mm^3 animals were divided into experimental and control groups. […]
Tumour volumes were assessed by calliper measurements of the perpendicular diameters and volumes estimated using the equation: […]
where a is the smaller and b the larger diameter Animals were weighed on a daily basis and the general well being monitored.

SVEC4-10 cells = assay: Tubule formation assay on GF-reduced Matrigel, SVEC4-10 cells; type: cell-based, Murine; conditions: FIG. 4, 6 h
Protocol: Adult human dermal microvascular endothelial cells (HuDMECs) were obtained commercially (TCS Biologicals, Buckinghamshire, United Kingdom) and cultured in microvascular endothelial cell growth medium (EGM). This medium contains heparin (10 ng/ml), hydrocortisone, human epidermal growth factor (10 ng/ml), human fibroblast growth factor (10 ng/ml) (such endothelial growth factors are necessary for routine passaging of HuDMECs in culture) and dibutyryl cyclic AMP. This was supplemented with 5% heat-inactivated FCS, 50 μg/ml gentamicin and 50 ng/ml amphotericin B (TCS Biologicals, United Kingdom). Murine endothelial cells (SVEC 4-10) were obtained from the ATCC and cultured in DMEM+10% FCS. Cells were grown at 37° C. in a 100% humidified incubator with a gas phase of 5% CO2 and routinely screened for Mycoplasma. Prior to their use in the assays indicated below, HuDMECs were grown to 80% confluency, incubated in DMEM+1% FCS for 2 h, then harvested with 0.05% trypsin solution, washed twice and resuspended to the cell density required for each assay (see below).
24 well plates were coated with 30 μl/well of growth factor-reduced (GF-reduced) Matrigel (Becton Dickinson Labware, Bedford, Mass.). […] Tubule formation was assessed by counting the number of tubule branches and the total area covered by tubules in each field of view using image analysis software supplied by Scion Image.

ADSGEGDFLAEGGGVRGPRVVERH (ADSGEGDFLAEGGGVRGPRVVERH) [α1-24, 24 amino acid peptide from the amino terminus of the fibrinogen α chain]
final tumour volume (CT26 tumours; Example 1, day 14, starting volume 235±30, vehicle control final 2245±371): 1341±145 mm^3
final tumour volume (CT26 tumours; Example 2, day 12, starting volume 338±39, vehicle control final 3072±255): 2029±504 mm^3
tubule formation (area covered by tubules) (SVEC4-10 cells; absence of growth factors): significantly (p<0.03) reduced tubule formation
tubule formation (area covered by tubules) (SVEC4-10 cells; presence of growth factors (VEGF 10 ng/ml or bFGF 10 ng/ml)): significantly (p<0.03) reduced tubule formation
